Key:
[1] = system: TRAMP mouse model of NEPC; assay: Efficacy study (tumor volume) in transgenic mouse model of NEPC (TRAMP mouse); assay type: in vivo; settings: TRAMP mice; talabostat mesylate 20 μg qd p.o.; PD-1 antagonist 10 mg/kg i.p. twice weekly
Excerpt: Efficacy Study of Talabostat Mesylate and PD-1 Antagonist in Transgenic Mouse Model of NEPC (TRAMP Mouse)
Reagents and Antibodies: RPMI-1640 medium (Catalog No.: A1049101), Glutamax (Catalog No.: 35050061), Trypsin-EDTA (0.25%) (Catalog No.: 25200-056), Penicillin-Streptomycin (Catalog No.: 15070-063), HBSS (Catalog No.: 14175-095) are procured form Gibco, while Fetal bovine serum (FBS) (Catalog No.: 004-001-1A) is purchased from Biological Industries. The anti-PD-1 antibody (PD-1 antagonist (clone: RMPI-14, Catalog no: BE0146)) is supplied by Bioxcell at 6.61 mg/ml. Stock solutions of PD-1 antagonist, at 1 mg/ml concentrations are prepared and kept at 4° C. prior to use. Dosing solutions of PD-1 antagonist are prepared freshly at a concentration of 1 mg/ml, before every administration in sterile phosphate buffered saline (PBS), pH 7.0 and administered a dose of 10 mg/kg, intraperitoneally (i.p) into, 20 g mouse. […]
Tumor size and body weights are measured twice weekly. Tumor volumes are measured twice per week in two dimensions using a caliper, and the volume are expressed in mm^3 using the formula: V=0.5 a×b^2 where a and b are the length and width of the tumor, respectively. […] Tumor volume is expressed in mm^3, is measured with caliper on day 5, 8, 12, 15, 19, 22, 26 and day 29.

[2] = system: NK cells, macrophages, FoxP3+ Tregs in tumor; assay: Immunophenotyping of tumor samples by RT-PCR; assay type: in vivo; settings: TRAMP mouse tumor samples
Experimental: Immunophenotyping of tumor samples by RT-PCR: Tumor RNA samples are extracted from the frozen tumor tissues using the Trizol reagent. Reverse transcription is carried out using a kit from Takara (Catalog No. #RR047A). Quantitative PCR are conducted using a master mix from Invitrogen (Catalog No. #4309155) on an ABI 7900HT Fast Real-Time PCR System. The results are analyzed using a Delta Ct Method. The marker gene and respective oligo sequence used in this study are from the NIH q-RT-PCR primer database (mouseqprimerdepot.nih.gov) these are associated with the Ncrl and Pfrl (NK cell receptor) a marker characteristic to the NK cell and their activation respectively, while the Gmbz is meant for quantifying the release of granzyme B and the FoxP3 associated with CD25+CD4+ Tregs. Statistical Analysis: A one-way ANOVA is also used to assess the statistical difference between the vehicle group and all other groups in the blood sample immune-phenotyping and q-RT-PCR assay as well as on the microarray samples on the indicated day. All the data is analyzed using GraphPad Prism 5. p<0.05 is statistically significant (*, p<0.05; **, p<0.01; ***, p<0.001).

talabostat mesylate
tumor reduction (tumor volume) [1]: significant effect | FoxP3+ Treg population (relative mRNA expression of FoxP3) in tumor samples [2]: reduction in the FoxP3 population
